Test results from patent publication US9809853B2, “Calcium-activated chloride channel involved in human sweat formation” (BRAIN Biotechnology Research and Information Network AG, priority 2012, dated 2017).

Molecular target: T1, CaCC (Ca^2+-activated chloride channels) in NCL-SG3-hsYFP cells (Homo sapiens, UniProt Q5XXA6)
T1 sequence (Q5XXA6 1-986): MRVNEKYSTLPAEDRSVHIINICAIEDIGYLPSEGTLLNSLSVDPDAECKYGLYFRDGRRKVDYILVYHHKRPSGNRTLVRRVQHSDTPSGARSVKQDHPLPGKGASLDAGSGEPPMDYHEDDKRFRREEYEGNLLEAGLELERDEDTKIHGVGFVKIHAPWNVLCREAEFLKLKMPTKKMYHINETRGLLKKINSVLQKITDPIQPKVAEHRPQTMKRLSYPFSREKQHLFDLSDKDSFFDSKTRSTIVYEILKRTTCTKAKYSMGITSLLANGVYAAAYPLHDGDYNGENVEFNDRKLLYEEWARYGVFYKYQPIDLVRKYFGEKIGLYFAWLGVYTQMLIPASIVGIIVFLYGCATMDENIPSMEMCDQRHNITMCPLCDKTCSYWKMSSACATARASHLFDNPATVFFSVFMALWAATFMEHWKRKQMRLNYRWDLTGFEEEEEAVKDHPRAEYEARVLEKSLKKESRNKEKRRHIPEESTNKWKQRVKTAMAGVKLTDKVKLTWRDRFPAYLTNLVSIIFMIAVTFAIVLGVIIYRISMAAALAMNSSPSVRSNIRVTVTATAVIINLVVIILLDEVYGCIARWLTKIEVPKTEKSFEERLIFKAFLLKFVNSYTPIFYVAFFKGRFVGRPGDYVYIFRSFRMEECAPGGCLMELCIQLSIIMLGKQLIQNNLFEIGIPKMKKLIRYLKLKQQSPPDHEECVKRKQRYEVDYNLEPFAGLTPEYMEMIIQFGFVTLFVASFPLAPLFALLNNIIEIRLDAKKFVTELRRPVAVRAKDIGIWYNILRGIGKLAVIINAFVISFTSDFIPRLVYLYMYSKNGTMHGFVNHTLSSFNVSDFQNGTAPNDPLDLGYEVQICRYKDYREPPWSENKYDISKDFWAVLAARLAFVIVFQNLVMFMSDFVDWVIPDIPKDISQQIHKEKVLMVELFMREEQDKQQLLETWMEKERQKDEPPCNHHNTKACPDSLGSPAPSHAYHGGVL
Assay: hsYFP fluorescence quenching (Cl^− efflux/I^− influx) assay in NCL-SG3-hsYFP CaCC activity sensor cells
Type: cell-based
Description: The halide inside the cell functionally interacts with the halide-sensitive cytoplasmic indicator protein, which leads to a quenching of the signal provided by the halide-sensitive cytoplasmic indicator protein. The more halide (such as e.g. iodide) flows into the cell, the weaker the signal emitted by the halide-sensitive cytoplasmic indicator protein becomes. This alteration of the signal emitted by the halide-sensitive cytoplasmic indicator protein is determined in a third step of the method of the invention. Due to the fact that the influx of halide into the cell is proportional to the efflux of chloride ions, the halide influx is used as a direct measure for chloride secretion. To determine the amount of chloride secretion, the fluorescence decrease is plotted against time (Δfluorescence/Δtime) and the initial slope of the resulting graph represents the iodide influx rate (sec^−1), which in turn is directly proportional to the chloride efflux rate, representing the amount of chloride secretion per time. In a fourth step, this amount of chloride secretion determined in the presence of a test compound is compared to the amount of chloride secretion determined in the absence of a said compound.
Effect of CaCC inhibitors on sweat gland-specific Ca^2+-dependent […] and proportional I^− influx was determined using NCL-SG3-hsYFP cells. Quenching of intracellular hsYFP fluorescence was measured and plotted over time. Exemplary raw data (B) and fitted curves are shown (A). NCL-SG3-hsYFP cells were incubated with 50 μM tannic acid (TA), 25 μM niflumic acid (NFA), 25 μM 5-nitro-2-(3-phenylpropyl-amino) benzoic acid (NPPB), 100 μM epigallocatechin-3-gallate (EGCG) for 15 min and then stimulated with 330 μM ATP.
Sweat gland-specific Ca^2+-dependent Cl^− efflux and a proportional I^− influx was determined using NCL-SG3-hsYFP cells. Quenching of intracellular hsYFP fluorescence was measured and plotted over time. Exemplary fitted curves are shown. NCL-SG3-hsYFP cells were incubated with increasing concentrations of tannic acid (TA) and then stimulated with 330 μM ATP. […] NCL-SG3-hsYFP cells were incubated with increasing concentrations of CaCC inhibitors and quenching of intracellular hsYFP fluorescence was measured after stimulation with ATP. The rate of […] (sec^−1), which is proportional to Ca^2+-dependent […] was calculated from the initial slope of the measured hsYFP fluorescence (ΔYFP fluorescence/Δtime) and is a direct measure of CaCC activity. IC50 values were determined by plotting the percentage of residual CaCC activity against the individual inhibitor concentration.
NCL-SG3-hsYFP cells were routinely cultivated in Williams' Medium E supplemented with 9% Fetal Calf Serum, 3.5 mM Glutamine, 9 ng/μl Hydrocortisone, Insulin-Transferrin-Selenium-Supplement (PAA Laboratories) at 37° C. and 5% CO2. For microplate assays, 20,000 cells were seeded in 96-well black-walled, clear bottom microplates (Costar) and cultivated for 2 days until cells reached confluency. Cells were washed three times with 100 μl modified Krebs-Henseleit (KH) buffer (137 mM NaCl, 2.7 mM KCl, 1.2 mM MgSO4, 1.2 mM KH2PO4, 4.2 mM NaHCO3, 1.3 mM CaCl2, 10 mM HEPES, pH 7.4) and incubated with the test compound in 50 μl KH-buffer for 15 min at 37° C. and 5% CO2. Microplates were transferred into an automated fluorescence plate reader (FlexStation®, Molecular Devices) and cellular hsYFP fluorescence was continuously recorded every 3.5 sec until end of the experiment (excitation at 485 nm, emission at 535 nm, cutoff 515 nm).

| Effect on hsYFP quenching by Cl^− efflux/I^− influx mediated by ATP (50 μM, 15 min, then 330 μM ATP) | Compound | Dose dependence of inhibition of CaCC-mediated Cl^− efflux (increasing inhibitor concentrations, stimulation with 330 μM ATP) | Effect of pretreatment on basal hsYFP quenching (unactivated cells (no ATP)) | Quenching of hsYFP fluorescence after addition of Ca^2+-elevating agent (330 μM) | Concentration giving maximal quenching of hsYFP (dose-dependent stimulation of Ca^2+-dependent Cl^− transport) [µM] |
| --- | --- | --- | --- | --- | --- |
| significant reduction of hsYFP quenching | O=C(OC[C@H]1O[C@@H](OC(=O)c2cc(O)c(O)c(OC(=O)c3cc(O)c(O)c(O)c3)c2)[C@H](OC(=O)c2cc(O)c(O)c(OC(=O)c3cc(O)c(O)c(O)c3)c2)[C@@H](OC(=O)c2cc(O)c(O)c(OC(=O)c3cc(O)c(O)c(O)c3)c2)[C@@H]1OC(=O)c1cc(O)c(O)c(OC(=O)c2cc(O)c(O)c(O)c2)c1)c1cc(O)c(O)c(OC(=O)c2cc(O)c(O)c(O)c2)c1 [TA, tannic acid] | dose-dependent reduction of hsYFP quenching | significant reduction of basal hsYFP quenching |  |  |
|  | Nc1ncnc2c1ncn2[C@@H]1O[C@H](COP(=O)(O)OP(=O)(O)OP(=O)(O)O)[C@@H](O)[C@H]1O [ATP] |  |  | fast quenching of the hsYFP fluorescence without recovery | 330 |
